From patent publication US12297186B2, “Benzylamide derivatives as inhibitors of transforming growth factor-beta receptor I/ALK5” (AGOMAB SPAIN, S.L.U., priority 2019, dated 2025) come the findings set out here.

Where a name gives a salt, the structure may show the parent alone. Read-outs that look alike come from different tables or passages of the source. A value given as a limit tells only on which side of the number the result lay.

For one series, the target named is Human TGFβR-1 kinase (Homo sapiens (Human), UniProt P36897). Nature of the series: In vitro enzyme assay: inhibition of TGFβR-1 kinase activity (ADP-Glo). Type of series: biochemical. How it is done:
In Vitro Enzyme Assay: Inhibition of TGFβR-1Kinase Activity
Human TGFβl R-1 inhibition experiments were carried out in a white 384-microplate low flange (Corning 3572) with ADP-Glo kinase Assay Kit (Promega V9101) and TGβR-1 Kinase Enzyme System (Promega V4092). […] The reaction mixture was incubated in gentle shaking for 120 min at RT, after incubation of 10 μL of ADP-Glo Reagent was added and incubated in gentle shaking for 40 min at RT. 20 μL of Kinase Detection Reagent was added and plate was incubated in gentle shaking for 30 min at RT. Luminiscence (1000 ms) was measured in Perkin Elmer EnSpire Multimode plate reader.

In another series the target is TGF-beta kinase (ALK-5) (Homo sapiens (Human), UniProt P36897). Nature of the series: Determination of the intracellular TGF-beta kinase activity (ALK-5), p-SMAD3 AlphaLISA in A549 cells. The note with it: A549 cell line. Type of series: cell-based. How it is done: Determination of the Intracellular TGF-beta Kinase Activity (ALK-5)
TGF-beta kinase (ALK-5), sequence (P36897 34-503): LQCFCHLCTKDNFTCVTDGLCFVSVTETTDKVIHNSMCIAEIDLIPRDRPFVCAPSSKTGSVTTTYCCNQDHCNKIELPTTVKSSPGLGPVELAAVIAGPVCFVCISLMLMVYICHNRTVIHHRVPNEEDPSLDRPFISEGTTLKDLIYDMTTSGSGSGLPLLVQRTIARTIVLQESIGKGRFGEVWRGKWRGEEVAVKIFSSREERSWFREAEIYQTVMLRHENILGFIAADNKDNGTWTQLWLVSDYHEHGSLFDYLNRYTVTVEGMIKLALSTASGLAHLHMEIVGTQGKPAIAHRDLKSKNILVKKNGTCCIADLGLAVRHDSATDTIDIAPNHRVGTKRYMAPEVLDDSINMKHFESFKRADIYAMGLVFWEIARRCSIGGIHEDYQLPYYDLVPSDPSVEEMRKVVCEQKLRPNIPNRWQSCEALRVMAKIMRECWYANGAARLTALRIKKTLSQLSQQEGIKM
The experiments were carried out in A549 cell line. 30000 cells were seeded in 200 μl of culture medium (Sigma D6046) supplemented with L-Glutamine (Sigma G7513), Penicillin/Streptomycin (Invitrogen 11058) and FBS (Sigma F9665) on a 96 wells microplate (Becton Dickinson 353072). After 16 hours medium waschanged to serum free medium.
On the technique in general: Alpha assays give light when donor and acceptor beads are brought close together.

Series [1] can be described thus: Identification study of metabolite. The series is classed as in vitro ADME. The text has this: In an identification study of metabolite was identified Compound A. Said compound is 2-(3-(6-methylpyridin-2-yl)-4-(quinolin-4-yl)-1H-pyrazol-1-yl)acetic acid and has the following formula: […]
Compound A was identified as the major metabolite of examples 9, 15, 20, 22, 24 and 26, among others.

Series [2] is described as follows: Plasma pharmacokinetic assay, single oral administration. The series is classed as in vivo, male Sprague Dawley rats. The settings on record: male, Sprague-Dawley, po; rat, P.O., 5 mg/kg, plasma. As for the experimental part: Plasma Pharmacokinetic Assay
The objective of this study was to investigate the plasma pharmacokinetics of some compounds of the present invention in male Sprague Dawley rats following a single oral administration. Three rats per compound were used in this study. Animals were administered with suspension formulation of each compound in 0.5% Tween-80 and 99.5% NaCMC (0.5% w/v in RO Water) by oral route at 5 mg/kg. The blood samples were collected from set of three rats at each time point in labelled micro centrifuge tube containing K2EDTA solution as anticoagulant at 0.25, 0.5, 1, 2, 4, 6, 8, 12 and 24 hr (p.o.). Plasma samples were separated by centrifugation of whole blood and stored below −70±10° C. until bioanalysis. All samples were processed for analysis by protein precipitation using acetonitrile and analysed with fit-for-purpose LC-MS/MS method (LLOQ=1.01 ng/mL). Pharmacokinetic parameters were calculated using the non-compartmental analysis tool of Phoenix WinNonlin® (Version 7.0).

Series [3] is described as follows: Metabolic stability assay, human microsomes. The series is classed as in vitro ADME. How it is done: (§1) Metabolic Stability Assay
(§2) Human and rat recombinant microsomes from Tebu-Xenotech were employed in the assay. They content 0.5 mg/ml of protein. The following quantities were added to each well of a 96-well microplate.
(§3) Plates were incubated at 37° C. and 75 μL samples were taken at 0, 10, 20, 40 and 60 minutes. Samples were transferred to a microplate and 75 μl Acetonitrile were added for inactivating the microsomes, and 30 μl of H2O for improving the chromatographic conditions and kept at 4° C. When all the samples were taken the plate was centrifuged at […] for 30 min at 15° C. Supernatant was taken and injected in the UPLC-MS/MS.
(§4) Stationary phase: Reverse phase Acquity UPLC® BEH C18 1.7 μm (2.1 mm×50 mm) (Waters). Mobile phase: A: 0.1% formic; B:acetonitrile+0.1% formic acid. Flow: 0.6 ml/min. The chromatographic equipment employed was an UPLC QSM Waters Acquity. Compound concentrations were calculated from the UV peak areas. The response was linear in the range between 10 ng/ml and 0.3125 ng/ml. Metabolic stability was calculated from the logarithm of the remaining compound at each of the times evaluated.
(§5) The data will be fitted to the one phase exponential decay equation using GraphPad Prism® software. The half-life (t1/2) generated by the software will be reported. Intrinsic clearance will be calculated using the formula where, k=decay rate constant (min^−1).

Series [4] in a line: Metabolic stability assay, rat microsomes. The series is classed as in vitro ADME. How it is done:
as §1, §2, §3, §4, §5

The mark [5] stands for this setting: TGFβR-1 kinase, 50 μM ATP, read-out: IC50 range.
The mark [6] stands for this setting: TGF-β2 activated, p-SMAD3, read-out: IC50 range.

Human TGFβR-1 kinase, sequence (P36897 34-503): as above

As usually defined, the IC50 is the concentration needed to halve the response being measured. As for `Cc1cccc(-c2nn(CC(=O)O)cc2-c2ccnc3ccccc23)n1` [Compound A, 2-(3-(6-methylpyridin-2-yl)-4-(quinolin-4-yl)-1H-pyrazol-1-yl)acetic acid], the IC50 was greater than 800 nM at Human TGFβR-1 kinase (enzyme assay, read-out: IC50 against TGFβR-1) and greater than 5000 nM at TGF-beta kinase (ALK-5) (read-out: IC50 intracellular TGF-beta kinase activity (ALK-5)).

Regarding `O=C(Cn1cc(-c2ccnc3ccccc23)c(-c2ccccn2)n1)NCc1ccccc1` [Example 1, N-benzyl-2-(3-(pyridin-2-yl)-4-(quinolin-4-yl)-1H-pyrazol-1-yl)acetamide], the IC50 on Human TGFβR-1 kinase (setting [5]) was less than 100 nM; at TGF-beta kinase (ALK-5) (setting [6]), 100 to 500 nM.

For `O=C(Cn1cc(-c2ccnc3ccccc23)c(-c2ccccn2)n1)NCc1ccc(F)cc1` [Example 2, N-(4-fluorobenzyl)-2-(3-(pyridin-2-yl)-4-(quinolin-4-yl)-1H-pyrazol-1-yl)acetamide], the IC50 at Human TGFβR-1 kinase (setting [5]) was 100 to 800 nM.

On to `O=C(Cn1cc(-c2ccnc3ccccc23)c(-c2ccccn2)n1)NCc1ccc(Cl)cc1` [Example 3, N-(4-chlorobenzyl)-2-(3-(pyridin-2-yl)-4-(quinolin-4-yl)-1H-pyrazol-1-yl)acetamide], for which the IC50 at Human TGFβR-1 kinase (setting [5]) is 100 to 800 nM.

`O=C(Cn1cc(-c2ccnc3ccccc23)c(-c2ccccn2)n1)NCc1ccc(Br)cc1` [Example 4, N-(4-bromobenzyl)-2-(3-(pyridin-2-yl)-4-(quinolin-4-yl)-1H-pyrazol-1-yl)acetamide]: the IC50 at Human TGFβR-1 kinase (setting [5]) fell in the range of 100 to 800 nM.

As for `Cc1ccc(CNC(=O)Cn2cc(-c3ccnc4ccccc34)c(-c3ccccn3)n2)cc1` [Example 7, N-(4-methylbenzyl)-2-(3-(pyridin-2-yl)-4-(quinolin-4-yl)-1H-pyrazol-1-yl)acetamide], the IC50 on Human TGFβR-1 kinase (setting [5]) was 100 to 800 nM.

As a reminder, the AUC(0-inf) is the area under the concentration-time curve extrapolated to infinity. Low readings indicate low exposure, high ones high exposure. By AUC(0-t) is commonly meant the area under the concentration-time curve up to a stated or last time point. As a reminder, the Cmax is the peak of the concentration-time curve. As a reminder, the Tmax is the time at which the peak concentration occurs. `Cc1cccc(-c2nn(CC(=O)NCc3ccccc3)cc2-c2ccnc3ccccc23)n1` [Example 9, N-benzyl-2-(3-(6-methylpyridin-2-yl)-4-(quinolin-4-yl)-1H-pyrazol-1-yl)acetamide]: the Major metabolite identified entry in series [1] was “Compound A”. In addition, the IC50 on Human TGFβR-1 kinase (setting [5]) was less than 100 nM. In addition, in series [2], the AUC(0-inf) was found to be 27.7 ng·h/mL, the AUC(0-t) worked out at 27 ng·h/mL, the highest level (Cmax) was 62.8 ng/mL and the Tmax stood at 15 min. Besides, the IC50 at TGF-beta kinase (ALK-5) (setting [6]) is less than 100 nM.

Take `Cc1cccc(CNC(=O)Cn2cc(-c3ccnc4ccccc34)c(-c3ccccn3)n2)c1` [Example 10, N-(3-methylbenzyl)-2-(3-(pyridin-2-yl)-4-(quinolin-4-yl)-1H-pyrazol-1-yl)acetamide]: the concentration for half-maximal inhibition (IC50) on Human TGFβR-1 kinase (setting [5]) lay in the range of 100 to 800 nM.

Take `O=C(Cn1cc(-c2ccnc3ccccc23)c(-c2ccccn2)n1)NCc1cccc(F)c1` [Example 11, N-(3-fluorobenzyl)-2-(3-(pyridin-2-yl)-4-(quinolin-4-yl)-1H-pyrazol-1-yl)acetamide]: at Human TGFβR-1 kinase (setting [5]), the concentration for half-maximal inhibition (IC50) lay in the range of 100 to 800 nM.

Take `O=C(Cn1cc(-c2ccnc3ccccc23)c(-c2ccccn2)n1)NCc1cccc(Cl)c1` [Example 12, N-(3-chlorobenzyl)-2-(3-(pyridin-2-yl)-4-(quinolin-4-yl)-1H-pyrazol-1-yl)acetamide]: at Human TGFβR-1 kinase (setting [5]), the concentration for half-maximal inhibition (IC50) lay in the range of 100 to 800 nM.

Take `N#Cc1cccc(CNC(=O)Cn2cc(-c3ccnc4ccccc34)c(-c3ccccn3)n2)c1` [Example 13, N-(3-cyanobenzyl)-2-(3-(pyridin-2-yl)-4-(quinolin-4-yl)-1H-pyrazol-1-yl)acetamide]: the IC50 on Human TGFβR-1 kinase (setting [5]) lay within 100 to 800 nM.

Turning to `Cc1ccccc1CNC(=O)Cn1cc(-c2ccnc3ccccc23)c(-c2ccccn2)n1` [Example 14, N-(2-methylbenzyl)-2-(3-(pyridin-2-yl)-4-(quinolin-4-yl)-1H-pyrazol-1-yl)acetamide], the IC50 at Human TGFβR-1 kinase (setting [5]) lay in the range of 100 to 800 nM.

For the molecule `Cc1cccc(-c2nn(CC(=O)NCc3ccccc3C)cc2-c2ccnc3ccccc23)n1` [Example 15, N-(2-methylbenzyl)-2-(3-(6-methylpyridin-2-yl)-4-(quinolin-4-yl)-1H-pyrazol-1-yl)acetamide], in series [1], the Major metabolite identified result is listed as “Compound A”. Also, the 50% inhibitory concentration (IC50) at Human TGFβR-1 kinase (setting [5]) is less than 100 nM. In series [2], the AUC(0-inf) is 39.4 ng·h/mL, the AUC(0-t) was 35.1 ng·h/mL, the peak level (Cmax) was 75.8 ng/mL and the Tmax was found to be 15 min. For the same molecule, at TGF-beta kinase (ALK-5) (setting [6]), the IC50 lay in the range of 100 to 500 nM.

As for `O=C(Cn1cc(-c2ccnc3ccccc23)c(-c2ccccn2)n1)NCc1ccccc1F` [Example 16, N-(2-fluorobenzyl)-2-(3-(pyridin-2-yl)-4-(quinolin-4-yl)-1H-pyrazol-1-yl)acetamide], the IC50 on Human TGFβR-1 kinase (setting [5]) was in the range of 100 to 800 nM.

Regarding `Cc1cccc(-c2nn(CC(=O)NCc3ccccc3F)cc2-c2ccnc3ccccc23)n1` [Example 17, N-(2-fluorobenzyl)-2-(3-(6-methylpyridin-2-yl)-4-(quinolin-4-yl)-1H-pyrazol-1-yl)acetamide], at Human TGFβR-1 kinase (setting [5]), the IC50 lay in the range of 100 to 800 nM.

`CCc1cccc(-c2nn(CC(=O)NCc3ccccc3)cc2-c2ccnc3ccccc23)n1` [Example 18, N-benzyl-2-(3-(6-ethylpyridin-2-yl)-4-(quinolin-4-yl)-1H-pyrazol-1-yl)acetamide]: on Human TGFβR-1 kinase (setting [5]), the IC50 is less than 100 nM.

Take `CCc1cccc(-c2nn(CC(=O)NCc3ccccc3C)cc2-c2ccnc3ccccc23)n1` [Example 19, 2-(3-(6-ethylpyridin-2-yl)-4-(quinolin-4-yl)-1H-pyrazol-1-yl)-N-(2-methylbenzyl)acetamide]: the results for the IC50 at Human TGFβR-1 kinase (setting [5]) and on TGF-beta kinase (ALK-5) (setting [6]) were less than 100 nM and 100 to 500 nM, respectively.

For `O=C(Cn1cc(-c2ccnc3ccccc23)c(-c2ccccn2)n1)NCc1ccccc1Cl` [Example 21, N-(2-chlorobenzyl)-2-(3-(pyridin-2-yl)-4-(quinolin-4-yl)-1H-pyrazol-1-yl)acetamide], on Human TGFβR-1 kinase (setting [5]), the IC50 lay within 100 to 800 nM.

As to `O=C(Cn1cc(-c2ccnc3ccccc23)c(-c2ccccn2)n1)NCc1c(F)cccc1F` [Example 23, N-(2,6-difluorobenzyl)-2-(3-(pyridin-2-yl)-4-(quinolin-4-yl)-1H-pyrazol-1-yl)acetamide], the IC50 at Human TGFβR-1 kinase (setting [5]) was in the range of 100 to 800 nM.

For `Cc1cccc(C)c1CNC(=O)Cn1cc(-c2ccnc3ccccc23)c(-c2ccccn2)n1` [Example 25, N-(2,6-dimethylbenzyl)-2-(3-(pyridin-2-yl)-4-(quinolin-4-yl)-1H-pyrazol-1-yl)acetamide], the IC50 on Human TGFβR-1 kinase (setting [5]) was less than 100 nM.

The microsomal CLint is a measure of how fast metabolising enzymes remove a compound, apart from limits set by blood flow. With `CCc1ccccc1CNC(=O)Cn1cc(-c2ccnc3ccccc23)c(-c2cccc(C)n2)n1` [Example 27, N-(2-ethylbenzyl)-2-(3-(6-methylpyridin-2-yl)-4-(quinolin-4-yl)-1H-pyrazol-1-yl)acetamide], the “% remanent (sampling time 60 min)” value in series [3] (60 min) turned out to be 0.53%; in series [4] (60 min), 0.31%. The intrinsic metabolic clearance (microsomal CLint) in series [3] (human recombinant microsomes (Tebu-Xenotech)) is 505 µL/min/mg; in series [4] (rat recombinant microsomes (Tebu-Xenotech), pH 7.4), 600 µL/min/mg. The IC50 at Human TGFβR-1 kinase (setting [5]) and on TGF-beta kinase (ALK-5) (setting [6]) was less than 100 nM in each case.

For `Cc1cccc(-c2nn(CC(=O)NCc3c(Cl)cccc3Cl)cc2-c2ccnc3ccccc23)n1` [Example 28, N-(2,6-dichlorobenzyI)-2-(3-(6-methylpyridin-2-yl)-4-(quinolin-4-yl)-1H-pyrazol-1-yl)acetamide], the IC50 on Human TGFβR-1 kinase (setting [5]) was less than 100 nM; on TGF-beta kinase (ALK-5) (setting [6]), 100 to 500 nM.

In the case of `O=C(Cn1cc(-c2ccnc3ccccc23)c(-c2ccccn2)n1)NCc1ccc(C(=O)O)cc1` [Example 29, 4-((2-(3-(pyridin-2-yl)-4-(quinolin-4-yl)-1H-pyrazol-1-yl)acetamido)methyl)benzoic acid hydrochloride], at Human TGFβR-1 kinase (setting [5]), the IC50 lay in the range of 100 to 800 nM.
